In patent publication US6423741B1, “Anti-microbial composition and method for producing the same” (priority 1998, dated 2002):
Values after ≈ are worked out from the molar mass of the structure shown. Like-named read-outs stand apart in the source and are kept apart here.

Key:
[1] = test system: Escherchia coli (Wild type); assay: Frequency of spontaneous resistance on poison agar with nalidixic acid; type: cell-based; settings: 50 μg/ml nalidixic acid poison agar
Method: (§1) In an experiment, the applicants first determined the frequency of spontaneous mutations in the bacteria Escherchia coil (Kumar, S. 1976. Journal of Bacteriology, 125: 545-555.) and Mycobacterium smegmatis (Snapper, S. B., Melton, R. E., Mustafa, S., Kieser, T. and Jacobs, W. R. 1990. Molecular Microbiology. 4:1911-1919.) leading to subsequent resistance development through selection in the presence of these drugs. Known titers of broth cultures of the bacteria were diluted and plated on poison agar medium containing 50 μg/ml nalidixic acid, and the resistant colonies thus developed were counted to estimate the frequency of drug resistance (Nal) development (Table 1).

[2] = test system: Mycobacterium smegmatis (Wild type); assay: as above; type: cell-based; settings: 50 μg/ml nalidixic acid poison agar
Method: as §1

E. coli (Wildtype) = assay: Disc sensitivity of E. coli strains; type: cell-based; settings: wild type strains; no dose stated
From the text: (§2) Since pathogens always try to counter the drug by genetically modifying itself through mutation(s) in the region of the drug target gene, it is necessary to kill those mutant(s) resistant cells for effective drug management. With this rationale, the applicants evaluated a selected drug resistant mutant strain (Ml) for nalidixic acid (wild type strains being sensitive to nalidixic acid). This mutant strain developed from wild type was defective in Gyr A subunit confirmed by mobilizing a plasmid bearing a wild type gyr A gene. […] Similarly a second mutant (M2) developed from the gyr A^− mutant strain (Nal^r) became sensitive to nalidixic acid which being resistant to α arteether (Table 3). It was noted that invariably among all the tested strains, those resistant to nalidixic acid were sensitive to α arteether and the strains sensitive to nalidixic acid were resistant to cc arteether. […] This is so, because the resistance to nalidixic acid is developed by gyr A mutation and the mutants will be killed by α arteether while, the α-arteether resistant strains will automatically become nalidixic acid sensitive and thus will be killed by nalidixic acid and this way all the spontaneous resistant bacteria could be contained.

[3] = test system: M1 (Mutant), gyr A− mutant; assay: Disc sensitivity of E. coli strains; type: cell-based; settings: gyr A− mutant (M1) developed from wild type; no dose stated
From the text: as §2

M2 (Mutant) = assay: Disc sensitivity of E. coli strains; type: cell-based; settings: second mutant (M2) developed from gyr A− mutant; no dose stated
From the text: as §2

[4] = test system: Escherchia coli mutant A1; assay: Minimum inhibitory concentration of nalidixic acid; type: cell-based
Method: (§3) To determine the correlation between nalidixic acid and α-arteether sensitivity, the applicants selected Escherchia coli cultures which were resistant to nalidixic acid at varying degrees (concentrations). Based on the minimal inhibitory concentration of nalidixic acid, Escherchia coli mutants were grouped as highly sensitive (MIC less than or equal to 10 μg/ml), resistant (MIC 10 to 200 μg/ml), […] (MIC more than or equal to 200 μg/ml). These strains were then tested for their sensitivity against α-arteether by estimating their growth (Absorbance at 620 nano meter wavelength of light) in presence of increasing concentrations of α-arteether. The absorbance data was converted to percent growth by considering the absorbance in control as 100%. The growth was then quantified as follows: 1.) greater than 80% growth : the mutant is highly resistant to α-arteether; 2.) 20 to 80% growth : the mutant is moderately resistant to α-arteether; 3.) less than 20% growth : the mutant is sensitive to α-arteether. […] In other words Escherchia coli mutants most resistant to nalidixic acid are most efficiently killed by α-arteether (Table 4) and vice versa.

[5] = test system: Escherchia coli mutant A2; assay: Minimum inhibitory concentration of nalidixic acid; type: cell-based
Method: as §3

[6] = test system: Escherchia coli mutant A3; assay: Minimum inhibitory concentration of nalidixic acid; type: cell-based
Method: as §3

[7] = test system: Escherchia coli mutant A4; assay: Minimum inhibitory concentration of nalidixic acid; type: cell-based
Method: as §3

E. coli Wildtype = assay: Resistance study, combination treatment vs mixed mutant cultures (optical density at 620 nm); type: cell-based
From the text: (§4) Continuing with the experimentation the applicants analyzed the growth of the mutant strains individually and upon co-cultivation compared to the wild type in presence of the compounds individually and in combination.

M1 + M2 (co-cultivation) = assay: as above; type: cell-based, E. coli
From the text: as §4

M1 = assay: as above; type: cell-based, E. coli
From the text: as §4

M2 = assay: as above; type: cell-based, E. coli
From the text: as §4

Escherchia coli (Nal′) = assay: Frequency of spontaneous resistance on plates with α-arteether; type: cell-based; settings: 1000 μg/ml α-arteether
Method: (§5) Further to determine the frequency of spontaneous resistant mutants in Escherchia coil and Mycobacterium smegmatis for α-arteether, the applicants used the nalidixic acid resistant mutants from the earlier example as the wild type strains since those were sensitive to α-arteether to isolate α-arteether resistant colonies. Known titers of broth cultures of the mutant (Nal) bacteria were diluted and plated in petriplates containing 1000 μg/ml α-arteether, and the resistant colonies thus developed were counted to determine the frequencies (Table 2).

[8] = test system: Mycobacterium smegmatis (Nal′); assay: as above; type: cell-based; settings: 1000 μg/ml α-arteether
Method: as §5

[9] = test system: Escherchia coli mutant A1; assay: Growth (absorbance at 620 nm) at increasing concentrations of α-arteether; type: cell-based
Method: as §3

[10] = test system: Escherchia coli mutant A2; assay: as above; type: cell-based
Method: as §3

[11] = test system: Escherchia coli mutant A3; assay: as above; type: cell-based
Method: as §3

[12] = test system: Escherchia coli mutant A4; assay: as above; type: cell-based
Method: as §3

Activity at different pH = settings: pH (neutral)
Method: Further, it is worth noting here that the said compounds of the invention are already in use for human consumption and the safety data of applications of the compounds are already known. As a known example of prior art (Asthana, O. P, Srivastava, J. S and Valecha, N., 1997. Current status of the artemisinin derivatives in the treatment of malaria with focus on arteether. Journal of Parasitic Diseases. 21: 1-12.), α/β arteether mixture is given at 150 mg doses (one dose per day, for 3 days) as intramuscular injection for treatment of drug resistant and cerebral malaria cases. The injections in the mentioned preparation are prepared in neutralized vegetable oil. Both the compounds of invention that is, α arteether and the quinolones have shown the best activities at pH 7.0 (neutral) in our experiments. Thus, the composition of this invention can be used to treat bacterial infections, particularly the cases where the emergence of drug resistance is known to have high incidence level. The said composition/composition can be employed for prevention of resistance development through random mutations occurring in bacteria against antibiotics. Various classes of quinolone drugs thus can be administered along with α-arteether in form of injection by suspending the compound in the neutralised vegetable oil. […]

[13] = test system: gyr mutant (Nal^r) strains of E.coli; settings: earlier invention; cited from earlier work
[14] = test system: wild type (Nal^s) strains of E.coli; settings: earlier invention; cited from earlier work
[15] = read-out: Minimum inhibitory concentration of nalidixic acid
[16] = read-out: Group by minimal inhibitory concentration of nalidixic acid

CCn1cc(C(=O)O)c(=O)c2ccc(C)nc21 [nalidixic acid]
Frequency of spontaneous resistance developed against Nalidixic acid [1]: 7.1 × 10^−9 | Frequency of spontaneous resistance developed against Nalidixic acid [2]: 1.0 × 10^−10 | Sensitivity of the strain (E. coli (Wildtype)): sensitive | Sensitivity of the strain [3]: resistant | Sensitivity of the strain (M2 (Mutant)): sensitive | Group by minimal inhibitory concentration of nalidixic acid ([4]; mutant A1): sensitive) | MIC [4, 15]: < 4 µg/mL | MIC [5, 16]: 10 to 200 µg/mL (≈ 43.1 to 861 µM) | MIC [5, 15]: 37.5 µg/mL (≈ 161 µM) | MIC [6, 16]: 10 to 200 µg/mL (≈ 43.1 to 861 µM) | MIC [6, 15]: 150 µg/mL (≈ 646 µM) | MIC [7, 16]: > 200 µg/mL | MIC [7, 15]: > 300 µg/mL | Optical density at 620 nanometer (E. coli Wildtype; nalidixic acid 50 μg/ml): 0.000 | Optical density at 620 nanometer (E. coli Wildtype; nalidixic acid 300 μg/ml): 0.000 | Optical density at 620 nanometer (M1 + M2 (co-cultivation); nalidixic acid 50 μg/ml): 0.910 | Optical density at 620 nanometer (M1 + M2 (co-cultivation); nalidixic acid 300 μg/ml): 0.920 | Optical density at 620 nanometer (M1; nalidixic acid 50 μg/ml): 0.950 | Optical density at 620 nanometer (M1; nalidixic acid 300 μg/ml): 0.960 | Optical density at 620 nanometer (M2; nalidixic acid 50 μg/ml): 0.000 | Optical density at 620 nanometer (M2; nalidixic acid 300 μg/ml): 0.000

CCO[C@@H]1O[C@@H]2O[C@]3(C)CC[C@H]4[C@H](C)CC[C@@H]([C@H]1C)[C@@]24OO3 [α-arteether]
Frequency of spontaneous resistance developed against α-arteether (Escherchia coli (Nal′)): 1.8 × 10^−9 | Frequency of spontaneous resistance developed against α-arteether [8]: 1.1 × 10^−10 | Sensitivity of the strain [3]: sensitive | Sensitivity of the strain (M2 (Mutant)): resistant | Growth (absorbance at 620 nm) ([9]; 400 μg/ml α-arteether): 0.858 | Percent growth (absorbance in control as 100%) ([9]; 400 μg/ml α-arteether): (93%) | Growth (absorbance at 620 nm) ([9]; 800 μg/ml α-arteether): 0.854 | Percent growth (absorbance in control as 100%) ([9]; 800 μg/ml α-arteether): (93%) | Growth (absorbance at 620 nm) ([9]; 1200 μg/ml α-arteether): 0.817 | Percent growth (absorbance in control as 100%) ([9]; 1200 μg/ml α-arteether): (89%) | Growth (absorbance at 620 nm) ([10]; 400 μg/ml α-arteether): 0.607 | Percent growth (absorbance in control as 100%) ([10]; 400 μg/ml α-arteether): (66%) | Growth (absorbance at 620 nm) ([10]; 800 μg/ml α-arteether): 0.539 | Percent growth (absorbance in control as 100%) ([10]; 800 μg/ml α-arteether): (58%) | Growth (absorbance at 620 nm) ([10]; 1200 μg/ml α-arteether): 0.458 | Percent growth (absorbance in control as 100%) ([10]; 1200 μg/ml α-arteether): (50%) | Growth (absorbance at 620 nm) ([11]; 400 μg/ml α-arteether): 0.421 | Percent growth (absorbance in control as 100%) ([11]; 400 μg/ml α-arteether): (50%) | Growth (absorbance at 620 nm) ([11]; 800 μg/ml α-arteether): 0.405 | Percent growth (absorbance in control as 100%) ([11]; 800 μg/ml α-arteether): (47%) | Growth (absorbance at 620 nm) ([11]; 1200 μg/ml α-arteether): 0.390 | Percent growth (absorbance in control as 100%) ([11]; 1200 μg/ml α-arteether): 46% | Growth (absorbance at 620 nm) ([12]; 400 μg/ml α-arteether): 0.017 | Percent growth (absorbance in control as 100%) ([12]; 400 μg/ml α-arteether): (2%) | Growth (absorbance at 620 nm) ([12]; 800 μg/ml α-arteether): 0.007 | Percent growth (absorbance in control as 100%) ([12]; 800 μg/ml α-arteether): (0.7%) | Growth (absorbance at 620 nm) ([12]; 1200 μg/ml α-arteether): 0.000 | Percent growth (absorbance in control as 100%) ([12]; 1200 μg/ml α-arteether): (0%) | Optical density at 620 nanometer (E. coli Wildtype; α arteether 400 μg/ml): 0.890 | Optical density at 620 nanometer (E. coli Wildtype; α arteether 800 μg/ml): 0.90 | Optical density at 620 nanometer (M1 + M2 (co-cultivation); α arteether 400 μg/ml): 0.920 | Optical density at 620 nanometer (M1 + M2 (co-cultivation); α arteether 800 μg/ml): 0.930 | Optical density at 620 nanometer (M1; α arteether 400 μg/ml): 0.000 | Optical density at 620 nanometer (M1; α arteether 800 μg/ml): 0.000 | Optical density at 620 nanometer (M2; α arteether 400 μg/ml): 0.900 | Optical density at 620 nanometer (M2; α arteether 800 μg/ml): 0.91 | pH of best activities (Activity at different pH): 7.0 | Effectiveness against the strains [13]: effective | Effectiveness against the strains [14]: ineffective
